Structures can show the parent of a compound that is named as a salt.
Target: T1, Microsomal ATP13A2 (Homo sapiens, UniProt Q9NQ11)
T1 construct: expressed in transfected cells; host or cells: SH-SY5Y human neuroblastoma cells, lentiviral transduction; microsomes solubilised with DDM
T1 sequence (Q9NQ11 1-1175 isoform Q9NQ11-3): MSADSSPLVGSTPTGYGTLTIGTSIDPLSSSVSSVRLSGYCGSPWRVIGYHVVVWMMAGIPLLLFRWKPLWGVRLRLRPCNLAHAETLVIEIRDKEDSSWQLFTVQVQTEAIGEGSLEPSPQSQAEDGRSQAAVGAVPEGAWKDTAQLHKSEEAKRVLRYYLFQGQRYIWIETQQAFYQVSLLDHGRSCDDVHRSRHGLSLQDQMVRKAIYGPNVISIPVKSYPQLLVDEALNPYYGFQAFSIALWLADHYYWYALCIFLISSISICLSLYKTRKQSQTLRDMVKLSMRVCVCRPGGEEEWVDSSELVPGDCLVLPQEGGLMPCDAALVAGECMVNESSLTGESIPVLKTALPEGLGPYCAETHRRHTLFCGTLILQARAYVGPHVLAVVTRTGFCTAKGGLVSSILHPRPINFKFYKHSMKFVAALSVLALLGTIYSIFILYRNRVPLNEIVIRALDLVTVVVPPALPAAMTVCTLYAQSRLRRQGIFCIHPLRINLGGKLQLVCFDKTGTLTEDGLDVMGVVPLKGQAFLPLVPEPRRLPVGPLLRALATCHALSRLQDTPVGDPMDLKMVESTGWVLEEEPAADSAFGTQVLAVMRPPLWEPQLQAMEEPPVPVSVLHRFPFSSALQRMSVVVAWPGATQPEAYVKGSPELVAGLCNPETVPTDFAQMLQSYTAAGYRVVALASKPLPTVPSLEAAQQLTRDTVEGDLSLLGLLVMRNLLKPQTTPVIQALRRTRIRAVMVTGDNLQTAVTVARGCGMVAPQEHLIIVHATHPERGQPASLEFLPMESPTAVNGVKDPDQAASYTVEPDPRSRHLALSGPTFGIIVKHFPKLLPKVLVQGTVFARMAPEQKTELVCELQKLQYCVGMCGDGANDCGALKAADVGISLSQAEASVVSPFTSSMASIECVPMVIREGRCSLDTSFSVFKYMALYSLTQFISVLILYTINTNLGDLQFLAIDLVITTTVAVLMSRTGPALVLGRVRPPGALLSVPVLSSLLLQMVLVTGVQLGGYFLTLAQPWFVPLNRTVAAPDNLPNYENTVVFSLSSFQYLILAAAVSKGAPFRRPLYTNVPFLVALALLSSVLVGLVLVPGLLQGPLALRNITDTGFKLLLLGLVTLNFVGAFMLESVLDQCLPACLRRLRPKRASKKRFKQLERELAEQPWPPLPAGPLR
Assay: ATPase assay (ADP-Glo Max), solubilized microsomes of SH-SY5Y cells overexpressing ATP13A2 WT
Assay type: biochemical
Conditions: for ATPase activity of ATP13A2 WT, screen for candidate substrates: 100 nM CaCl2, MnCl2, ZnCl2 or FeCl3, 100 µM SPD or SPM; for ATPase activity of ATP13A2, dose-response: indicated doses, microsomes 5 µg
Procedure: Membrane fractionation - Transduced SH-SY5Y cells were seeded in […] at a density of 6 x 10^6 cells per plate. 24 h later, the cells were harvested following trypsinization and brief centrifugation (300 x g, 5 min). Subcellular fractionation was performed by differential centrifugation. The microsomal protein concentration was measured using the bicinchoninic acid assay (Thermo Fischer Scientific, Pierce) according to the manufacturer's instructions.
ATPase assay - The ATPase activity of ATP13A2 was assessed using a commercially available luminescence assay (ADP-Glo Max assay, Promega) that monitors the production of ADP via luciferase activity. The reactions were performed for 30 min (37°C) in a final volume of 25 µl. […] The assay was started by the addition of 5 mM ATP and was terminated by adding 25 µl of ADP-Glo Reagent. The 96-well plate was then incubated for 40 min at room temperature, followed by the addition of 50 µl of ADP-Glo Max Detection Reagent. After 40 min, luminescence was detected using a FlexStation 3.0 system (Molecular Devices). Dose-response curves and n/Km/Vmax values were calculated using GraphPad Prism Software (GraphPad Software Inc.).

SMILES	ATPase activity of ATP13A2 WT, screen for candidate substrates	Vmax ± SEM (Microsomal ATP13A2)	ATPase activity of ATP13A2, dose-response
[Ca+2].[Cl-].[Cl-] [CaCl2]	had no effect		
[Cl][Fe]([Cl])[Cl] [FeCl3]	did not increase ATP13A2 activity		
[Cl][Mn][Cl] [MnCl2]	did not increase ATP13A2 activity		
CC(=O)NCCCNCCCCNCCCN [N1-acetylspermine, N^1-acetylspermine trihydrochloride]		98 ± 5 nmol ADP/mg/min	stimulate ATPase activity in a concentration-dependent manner
[Cl-].[Cl-].[Zn+2] [ZnCl2]	did not increase ATP13A2 activity		
N=C(N)NCCCCN.O=S(=O)(O)O [agmatine, agmatine sulfate salt]			did not induce ATP13A2 activity
NCCCCCN [cadaverine]			did not induce ATP13A2 activity
Cl.NCCc1ccc(O)c(O)c1 [dopamine, dopamine hydrochloride]			did not induce ATP13A2 activity
NCCc1c[nH]cn1 [histamine]			did not induce ATP13A2 activity
